According to the supplement of paper PMC10307832:

Columns and labels:
Test in all cases: relative viability (nuclei count vs DMSO), 5 days (fraction); higher = more cells survive
[1] = compound: CC1=C(C(=NN1)C)CC2=C(C3=C(S2)N(C(=O)N(C3=O)C)CC(C)C)C(=O)N4C[C@@H](CO4)O
Summary of the method: (§1)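 Lung cancer cell lines were seeded into 1536-well plates, kept overnight at 37 °C and pinned with five library-drug doses (not always all listed) spaced by √10. After 5 days, nuclei were Hoechst-stained, imaged at 4× and counted with MetaXpress. Viability is treated-well nuclei over vehicle-well nuclei, taken as a median across plates. Plates needed control CV below 25% and at least one doubling.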

IDH-C35 = compound: Cc1ccccc1C(C(=O)NC1CCCCC1)N(C(=O)Cn1ccnc1C)c1cccc(F)c1 [IDH-C35]
Summary of the method: as §1

[2] = compound: CC1=C(C(=NN1)C)CC2=C(C3=C(S2)N(C(=O)N(C3=O)C)CC(C)C)C(=O)N4C[C@@H](CO4)O + CCNC(=O)c1noc(-c2cc(C(C)C)c(O)cc2O)c1-c1ccc(CN2CCOCC2)cc1 [Luminespib] (partner 0.01 µM)
Summary of the method: (§2)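 A single step with final 0.05% Triton X-100, 1% formaldehyde and 1 ug/ml Hoechst fixed the cells and stained nuclei 5 days after treatment. Lung cancer cell lines in 1536-well plates had been treated by pin tool the day after seeding with one drug alone or a fixed anchor-drug dose plus five library-drug doses (not always all listed) in √10 steps, and nuclei were counted on 4× images. Relative viability is the ratio of nuclei in treated wells to nuclei in vehicle wells, taken as the median of duplicate plates.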

[3] = compound: CC1=C(C(=NN1)C)CC2=C(C3=C(S2)N(C(=O)N(C3=O)C)CC(C)C)C(=O)N4C[C@@H](CO4)O + COc1cc2c(Oc3ccc(NC(=O)C4(C(=O)Nc5ccc(F)cc5)CC4)cc3F)ccnc2cc1OCCCN1CCOCC1 [Foretinib] (partner 0.25 µM)
Summary of the method: as §2

[4] = compound: CC1=C(C(=NN1)C)CC2=C(C3=C(S2)N(C(=O)N(C3=O)C)CC(C)C)C(=O)N4C[C@@H](CO4)O + COc1cccc2cc(-c3nc([C@H]4CC[C@H](C(=O)O)CC4)n4ncnc(N)c34)[nH]c12 [OSI-027] (partner 0.5 µM)
Summary of the method: as §2

[5] = compound: CC1=C(C(=NN1)C)CC2=C(C3=C(S2)N(C(=O)N(C3=O)C)CC(C)C)C(=O)N4C[C@@H](CO4)O + Cc1cc(Nc2cc(N3CCN(C)CC3)nc(Sc3ccc(NC(=O)C4CC4)cc3)n2)n[nH]1 [Tozasertib] (partner 0.1 µM)
Summary of the method: as §2

[6] = compound: CC1=C(C(=NN1)C)CC2=C(C3=C(S2)N(C(=O)N(C3=O)C)CC(C)C)C(=O)N4C[C@@H](CO4)O + Cc1nc(Nc2ncc(C(=O)Nc3c(C)cccc3Cl)s2)cc(N2CCN(CCO)CC2)n1 [Dasatinib] (partner 0.075 µM)
Summary of the method: as §2

[7] = compound: CC1=C(C(=NN1)C)CC2=C(C3=C(S2)N(C(=O)N(C3=O)C)CC(C)C)C(=O)N4C[C@@H](CO4)O + N=C(N)NC(=N)NCCc1ccccc1 [Phenformin] (partner 250 µM)
Summary of the method: as §2

IDH-C35 + Luminespib = compound: Cc1ccccc1C(C(=O)NC1CCCCC1)N(C(=O)Cn1ccnc1C)c1cccc(F)c1 [IDH-C35] + CCNC(=O)c1noc(-c2cc(C(C)C)c(O)cc2O)c1-c1ccc(CN2CCOCC2)cc1 [Luminespib] (partner 0.01 µM)
Summary of the method: as §2

IDH-C35 + Foretinib = compound: Cc1ccccc1C(C(=O)NC1CCCCC1)N(C(=O)Cn1ccnc1C)c1cccc(F)c1 [IDH-C35] + COc1cc2c(Oc3ccc(NC(=O)C4(C(=O)Nc5ccc(F)cc5)CC4)cc3F)ccnc2cc1OCCCN1CCOCC1 [Foretinib] (partner 0.25 µM)
Summary of the method: as §2

IDH-C35 + OSI-027 = compound: Cc1ccccc1C(C(=O)NC1CCCCC1)N(C(=O)Cn1ccnc1C)c1cccc(F)c1 [IDH-C35] + COc1cccc2cc(-c3nc([C@H]4CC[C@H](C(=O)O)CC4)n4ncnc(N)c34)[nH]c12 [OSI-027] (partner 0.5 µM)
Summary of the method: as §2

IDH-C35 + Tozasertib = compound: Cc1ccccc1C(C(=O)NC1CCCCC1)N(C(=O)Cn1ccnc1C)c1cccc(F)c1 [IDH-C35] + Cc1cc(Nc2cc(N3CCN(C)CC3)nc(Sc3ccc(NC(=O)C4CC4)cc3)n2)n[nH]1 [Tozasertib] (partner 0.1 µM)
Summary of the method: as §2

IDH-C35 + Dasatinib = compound: Cc1ccccc1C(C(=O)NC1CCCCC1)N(C(=O)Cn1ccnc1C)c1cccc(F)c1 [IDH-C35] + Cc1nc(Nc2ncc(C(=O)Nc3c(C)cccc3Cl)s2)cc(N2CCN(CCO)CC2)n1 [Dasatinib] (partner 0.075 µM)
Summary of the method: as §2

IDH-C35 + Phenformin = compound: Cc1ccccc1C(C(=O)NC1CCCCC1)N(C(=O)Cn1ccnc1C)c1cccc(F)c1 [IDH-C35] + N=C(N)NC(=N)NCCc1ccccc1 [Phenformin] (partner 250 µM)
Summary of the method: as §2

NCI-H1623
relative viability ([1]; 0.0025 µM): 1.02 | relative viability ([1]; 0.007906 µM): 0.899 | relative viability ([1]; 0.025 µM): 1.01 | relative viability ([1]; 0.07906 µM): 1.01 | relative viability ([1]; 0.25 µM): 0.955 | relative viability (IDH-C35; 0.08 µM): 0.969 | relative viability (IDH-C35; 0.253 µM): 0.975 | relative viability (IDH-C35; 0.8 µM): 0.95 | relative viability (IDH-C35; 2.53 µM): 1 | relative viability (IDH-C35; 8 µM): 1.04 | relative viability ([2]; first compound 0.0025 µM): 0.64 | relative viability ([2]; first compound 0.007906 µM): 0.601 | relative viability ([2]; first compound 0.025 µM): 0.503 | relative viability ([2]; first compound 0.07906 µM): 0.499 | relative viability ([2]; first compound 0.25 µM): 0.554 | relative viability ([3]; first compound 0.0025 µM): 0.985 | relative viability ([3]; first compound 0.007906 µM): 0.788 | relative viability ([3]; first compound 0.025 µM): 0.997 | relative viability ([3]; first compound 0.07906 µM): 0.805 | relative viability ([3]; first compound 0.25 µM): 0.749 | relative viability ([4]; first compound 0.0025 µM): 0.525 | relative viability ([4]; first compound 0.007906 µM): 0.414 | relative viability ([4]; first compound 0.025 µM): 0.447 | relative viability ([4]; first compound 0.07906 µM): 0.424 | relative viability ([4]; first compound 0.25 µM): 0.506 | relative viability ([5]; first compound 0.0025 µM): 0.463 | relative viability ([5]; first compound 0.007906 µM): 0.494 | relative viability ([5]; first compound 0.025 µM): 0.467 | relative viability ([5]; first compound 0.07906 µM): 0.398 | relative viability ([5]; first compound 0.25 µM): 0.49 | relative viability ([6]; first compound 0.0025 µM): 0.505 | relative viability ([6]; first compound 0.007906 µM): 0.513 | relative viability ([6]; first compound 0.025 µM): 0.549 | relative viability ([6]; first compound 0.07906 µM): 0.442 | relative viability ([6]; first compound 0.25 µM): 0.453 | relative viability ([7]; first compound 0.0025 µM): 0.465 | relative viability ([7]; first compound 0.007906 µM): 0.408 | relative viability ([7]; first compound 0.025 µM): 0.514 | relative viability ([7]; first compound 0.07906 µM): 0.525 | relative viability ([7]; first compound 0.25 µM): 0.378 | relative viability (IDH-C35 + Luminespib; first compound 0.08 µM): 0.435 | relative viability (IDH-C35 + Luminespib; first compound 0.253 µM): 0.503 | relative viability (IDH-C35 + Luminespib; first compound 0.8 µM): 0.502 | relative viability (IDH-C35 + Luminespib; first compound 2.53 µM): 0.559 | relative viability (IDH-C35 + Luminespib; first compound 8 µM): 0.439 | relative viability (IDH-C35 + Foretinib; first compound 0.08 µM): 0.91 | relative viability (IDH-C35 + Foretinib; first compound 0.253 µM): 0.854 | relative viability (IDH-C35 + Foretinib; first compound 0.8 µM): 0.811 | relative viability (IDH-C35 + Foretinib; first compound 2.53 µM): 0.896 | relative viability (IDH-C35 + Foretinib; first compound 8 µM): 0.861 | relative viability (IDH-C35 + OSI-027; first compound 0.08 µM): 0.45 | relative viability (IDH-C35 + OSI-027; first compound 0.253 µM): 0.421 | relative viability (IDH-C35 + OSI-027; first compound 0.8 µM): 0.394 | relative viability (IDH-C35 + OSI-027; first compound 2.53 µM): 0.435 | relative viability (IDH-C35 + OSI-027; first compound 8 µM): 0.423 | relative viability (IDH-C35 + Tozasertib; first compound 0.08 µM): 0.414 | relative viability (IDH-C35 + Tozasertib; first compound 0.253 µM): 0.423 | relative viability (IDH-C35 + Tozasertib; first compound 0.8 µM): 0.464 | relative viability (IDH-C35 + Tozasertib; first compound 2.53 µM): 0.452 | relative viability (IDH-C35 + Tozasertib; first compound 8 µM): 0.431 | relative viability (IDH-C35 + Dasatinib; first compound 0.08 µM): 0.475 | relative viability (IDH-C35 + Dasatinib; first compound 0.253 µM): 0.504 | relative viability (IDH-C35 + Dasatinib; first compound 0.8 µM): 0.534 | relative viability (IDH-C35 + Dasatinib; first compound 2.53 µM): 0.535 | relative viability (IDH-C35 + Dasatinib; first compound 8 µM): 0.474 | relative viability (IDH-C35 + Phenformin; first compound 0.08 µM): 0.604 | relative viability (IDH-C35 + Phenformin; first compound 0.253 µM): 0.638 | relative viability (IDH-C35 + Phenformin; first compound 0.8 µM): 0.573 | relative viability (IDH-C35 + Phenformin; first compound 2.53 µM): 0.613 | relative viability (IDH-C35 + Phenformin; first compound 8 µM): 0.557
